Results published in patent publication US9550796B2, “Pyrrolopyrrolone derivatives and their use as BET inhibitors” (NOVARTIS AG, priority 2013, dated 2017).

What was measured:
[1] = molecular target: BRD4 (Homo sapiens (Human), UniProt O60885); experiment: TR-FRET in-vitro binding assay for BRD4; details: 45 nM His-Brd4(44-477), acetyl-histone H4 (AcK 5, 8, 12, 16) peptide
Description: (§1) TR-FRET In-Vitro Binding Assays for BRD2, BRD3, and BRD4: All assays were performed in 384-well microtiter plates. […] Liquid handling and incubation steps were done on an Innovadyne Nanodrop Express equipped with a robotic arm (Thermo CatX, Perkin Elmer/Caliper Twister II) and an incubator (Liconic STX40, Thermo Cytomat 2C450). The assay plates were prepared by addition of 50 nl per well of compound solution in 90% DMSO HummingBird nanodispenser (Zinsser Analytic). […] Reactions were incubated at 30° C. for 35 minutes. […] After 35 minutes incubation at 30° C., plates were measured in a Perkin Elmer EnVision multilabel reader. […] The stock solutions were stored at […] if not used immediately. For the test procedure the vials were defrosted and identified by a scanner whereby a working sheet was generated that guided the subsequent working steps. Compound dilutions were made in 96 well plates. This format enabled the assay of maximally […] at 8 concentrations (single points) including 4 reference compounds, if desired (known BET inhibitors from the prior art, for this and other assays of the type disclosed herein). The dilution protocol included the production of “pre-dilution plates”, “master plates” and “assay plates”. Polypropylene 96-well plates were used as pre-dilution plates. […] All dilution steps were done on a HamiltonSTAR robot. […] Identical “assay plates” were then prepared by pipetting 50 nL each of compound dilutions of the “master plates” into 384-well “assay plates” by means of a HummingBird 384-channel dispenser. These plates were used directly for the assay which was performed in a total volume of 13.55 μL.

[2] = molecular target: BRD3 (Homo sapiens (Human), UniProt Q15059); experiment: TR-FRET in-vitro binding assay for BRD3; details: 45 nM His-Brd3(20-477), acetyl-histone H4 (AcK 5, 8, 12, 16) peptide
Chain of BRD3 (Q15059 20-477): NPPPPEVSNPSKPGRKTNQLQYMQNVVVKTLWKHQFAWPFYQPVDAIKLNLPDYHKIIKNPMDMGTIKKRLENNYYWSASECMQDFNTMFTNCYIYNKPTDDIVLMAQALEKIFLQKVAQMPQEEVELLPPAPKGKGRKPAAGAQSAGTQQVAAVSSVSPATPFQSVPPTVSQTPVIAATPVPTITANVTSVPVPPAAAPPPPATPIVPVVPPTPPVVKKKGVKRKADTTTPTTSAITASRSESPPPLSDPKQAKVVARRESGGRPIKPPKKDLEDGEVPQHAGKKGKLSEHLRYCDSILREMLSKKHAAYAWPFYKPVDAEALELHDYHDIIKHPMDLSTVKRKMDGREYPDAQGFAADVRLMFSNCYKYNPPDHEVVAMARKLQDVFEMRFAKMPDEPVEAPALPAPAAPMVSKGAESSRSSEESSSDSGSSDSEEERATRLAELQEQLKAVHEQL
Description: as §1

[3] = molecular target: CREBBP (Homo sapiens (Human), UniProt Q92793); experiment: AlphaScreen in-vitro binding assay for CREBBP; details: 324 nM His-CREBBP (1081-1197), acetyl-histone H4 (AcK 5, 8, 12) peptide
Chain of CREBBP (Q92793 1081-1197): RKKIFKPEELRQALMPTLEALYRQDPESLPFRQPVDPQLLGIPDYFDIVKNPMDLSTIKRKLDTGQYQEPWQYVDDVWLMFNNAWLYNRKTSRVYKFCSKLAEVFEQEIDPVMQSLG
Description: AlphaScreen In-Vitro Binding Assay for CREBBP
In order to assess bromodomain selectivity, we set up a binding assay using the bromodomain encoded by the CREBBP gene. […] The assay was started by stepwise addition of 4.5 μL per well of bromo domain protein (50 mM HEPES, pH 7.5, 0.005% Tween20, 0.02% BSA, 150 mM NaCl, 324 nM His-CREBBP (1081-1197) (custom production at Viva Biotech Ltd.)) and 4.5 μL per well of peptide solution (50 mM HEPES, pH 7.5, 0.005% Tween20, 0.02% BSA, 150 mM NaCl, 120 nM acetyl-histone H4 (AcK 5, 8, 12) (Biosyntan GmbH)). Reactions were incubated at 30° C. for 35 minutes. Subsequently 4.5 μL per well detection mix (50 mM HEPES, pH 7.5, 0.005% Tween20, 0.02% BSA, 150 mM NaCl, 45 μg/ml Ni-chelate acceptor beads, 45 μg/mL streptavidin-donor beads) (Perkin Elmer)) were added. After 60 minutes incubation at room temperature, plates were measured in a Perkin Elmer EnVision multilabel reader. IC50 values were determined from percent inhibition values at different compound concentrations by non-linear regression analysis.
Test compounds were dissolved in DMSO (10 mM) and transferred into 1.4 mL flat bottom or V-shaped Matrix tubes carrying a unique 2D matrix. The stock solutions were stored at […] if not used immediately. For the test procedure the vials were defrosted and identified by a scanner whereby a working sheet was generated that guided the subsequent working steps. Compound dilutions were made in 96 well plates. This format enabled the assay of maximally […] at 8 concentrations (single points) including 4 reference compounds, if desired (known BET inhibitors from the prior art, for this and other assays of the type disclosed herein). The dilution protocol included the production of “pre-dilution plates”, “master plates” and “assay plates”.
Polypropylene 96-well plates were used as pre-dilution plates. A total of 4 pre-dilution plates were prepared including 10 test compounds each on the plate positions A1-A10, one standard compound at A11 and one DMSO control at […]. All dilution steps were done on a HamiltonSTAR robot.
30 μL of individual compound dilutions including standard compound and controls of the 4 “pre-dilution plates” were transferred into a 384-well “master plate” including the following concentrations 10000, […], 1000, 300, 100, 30, 10 and 3 μM, respectively in 90% of DMSO.
Identical “assay plates” were then prepared by pipetting 50 nL each of compound dilutions of the “master plates” into 384-well “assay plates” by means of a HummingBird 384-channel dispenser. These plates were used directly for the assay which was performed in a total volume of 13.55 μL.

[4] = test system: MV-4-11; experiment: Cell growth inhibition assay (CellTiter-Glo), MV-4-11; format: cell-based, human; details: MV-4-11 cells, 4 days; for GI50: Homo sapiens, MV4-11, 96 h, half-maximal growth inhibition; for MV-4-11 TGI: total growth inhibition
Description: (§2) Cell Growth Inhibition Assay
(§3) The human leukemia cell lines MV-4-11, THP-1 and K-562 were employed to characterize the effect of BET inhibitors on cellular proliferation and viability. Cells were obtained from the American Type Culture Collection (ATCC) and cultured at 37° C. in a humidified 5% CO2 incubator in the following media: MV-4-11: DMEM high glucose (Animed #1-26F01-I), 10% FCS (Animed #2-01F26-I), 4 mM L-Glutamine (Animed #5-10K50), 1 mM Sodium Pyruvate (Animed # G03625P), 1× Penicillin-Streptomycin (Animed # F12478P); K-562: Iscove's MEM (Animed #1-28F16-I), 10% FCS (Animed #2-01F26-I), 4 mM L-Glutamine (Animed #5-10K50), 1× Penicillin-Streptomycin (Animed # F12478P); THP-1: RPMI-1640 (Animed #1-41F01-I), 10% FCS (Animed #2-01F26-I), 2 mM L-Glutamine (Animed #5-10K50), 10 mM HEPES (Animed #5-31F100), 1 mM Sodium Pyruvate (Animed # G03625P), 1× Penicillin-Streptomycin (Animed # F12478P). The AML lines MV-4-11 and THP-1 are very sensitive to BET inhibitors and show massive cell death upon BET inhibition (Zuber et al., Nature, 478 (2011), 524-8). Compound-mediated suppression of cell proliferation/viability was assessed by quantification of cellular ATP levels using the CellTiter-Glo (CTG) reagent (Promega). Briefly, cells were seeded in 20 μl fresh medium into 384-well plates, followed by addition of 5 μL medium containing compound dilutions at 5-fold their final intended concentration. Dose-response effects were assessed by 3-fold serial dilutions of the test compound, starting at 10 μM. Following incubation of the cells for 4 days at 37° C. and 5% CO2, the effect of inhibitors on cell viability was quantified following addition of 20 μl CTG and luminescence quantification (integration time: 100 ms) as per vendor manual, using a correspondingly equipped Tecan M200 multi-mode platereader (TECAN, Switzerland). For data analysis, the assay background value determined in wells containing medium, but no cells, was subtracted from all data points. To enable differentiation of cytotoxic from cytostatic compounds, the number of viable cells is assessed relative to that observed at the time of compound addition using a separate cell plate (day 0). The effect of a particular test compound concentration on cell proliferation/viability is expressed as percentage of the background- and day 0-corrected luminescence reading obtained for cells treated with vehicle only (DMSO, 0.1% final concentration), which is set as 100%, whereas that luminescence reading for wells containing medium is set as −100%. Compound concentrations leading to half-maximal (IC50) and total growth inhibition (TGI) were determined using standard four parameter curve fitting.

[5] = test system: THP-1; experiment: Cell growth inhibition assay (CellTiter-Glo), THP-1; format: cell-based, human; details: THP-1 cells, 4 days; for GI50: Homo sapiens, 96 h, half-maximal growth inhibition; for THP-1 TGI: total growth inhibition
Description: as §2, §3

[6] = test system: K-562; experiment: Cell growth inhibition assay (CellTiter-Glo), K-562; format: cell-based, human; details: K-562 cells, 4 days; for GI50: Homo sapiens, K562, 96 h, half-maximal growth inhibition; for K-562 TGI: total growth inhibition
Description: as §2, §3

Row | SMILES | IC50 [1] | IC50 [2] | IC50 [3] | GI50 [4] | MV-4-11 TGI [4] | GI50 [5] | THP-1 TGI [5] | GI50 [6] | K-562 TGI [6]
1 | CC(=O)Nc1cn(C)c2c1C(=O)N(c1cc(C)c3nnn(C)c3c1)C2c1ccc(Cl)cc1 (stereo not drawn) [Example 113, N-(6-(4-chlorophenyl)-5-(1,4-dimethyl-1H-benzo[d][1,2,3]triazol-6-yl)-1-methyl-4-oxo-1,4,5,6-tetrahydropyrrolo[3,4-b]pyrrol-3-yl)acetamide] | 13 nM | 15 nM | 1600 nM | 13.6 nM | 27.25 nM | 12.9 nM | 30.35 nM | 72 nM | >10000 nM
2 | CNC(=O)Nc1cn(C)c2c1C(=O)N(c1cc(C)c3nnn(C)c3c1)C2c1ccc(Cl)cc1 (stereo not drawn) [Example 114, 1-(6-(4-chlorophenyl)-5-(1,4-dimethyl-1H-benzo[d][1,2,3]triazol-6-yl)-1-methyl-4-oxo-1,4,5,6-tetrahydropyrrolo[3,4-b]pyrrol-3-yl)-3-methylurea] | 34 nM | 38 nM | 1300 nM | 26.8 nM | 66 nM | 27.1 nM | 105.2 nM | 499 nM | >10000 nM
3 | Cc1cc(N2C(=O)c3c(NC(=O)CCN(C)C)cn(C)c3C2c2ccc(Cl)cc2)cc2c1nnn2C (stereo not drawn) [Example 115, N-(6-(4-chlorophenyl)-5-(1,4-dimethyl-1H-benzo[d][1,2,3]triazol-6-yl)-1-methyl-4-oxo-1,4,5,6-tetrahydropyrrolo[3,4-b]pyrrol-3-yl)-3-(dimethylamino)propanamide] | 26 nM | 36 nM | 3900 nM | 16.1 nM | 25.7 nM | 29.3 nM | 79 nM | 157 nM | >10000 nM
4 | Cc1cc(N2C(=O)c3c(NC(=O)CN(C)C)cn(C)c3C2c2ccc(Cl)cc2)cn2c(C)nnc12 (stereo not drawn) [Example 116, N-(6-(4-chlorophenyl)-5-(3,8-dimethyl-[1,2,4]triazolo[4,3-a]pyridin-6-yl)-1-methyl-4-oxo-1,4,5,6-tetrahydropyrrolo[3,4-b]pyrrol-3-yl)-2-(dimethylamino)acetamide] | 26 nM | 34 nM | 4200 nM | 37.8 nM | 87.45 nM | 59.5 nM | 123 nM | 288 nM | >10000 nM
5 | CC(=O)N1CC(c2cn(C)c3c2C(=O)N(c2cc(C)c4nnc(C)n4c2)C3c2ccc(Cl)cc2)C1 (stereo not drawn) [Example 117, 3-(1-acetylazetidin-3-yl)-6-(4-chlorophenyl)-5-(3,8-dimethyl-[1,2,4]triazolo[4,3-a]pyridin-6-yl)-1-methyl-5,6-dihydropyrrolo[3,4-b]pyrrol-4(1H)-one] | 14 nM | 17 nM | 13700 nM | 124 nM | 217.5 nM | 184 nM | 354 nM | 1490 nM | >10000 nM
6 | Cc1cc(N2C(=O)c3c(C4CN(C)C4)cn(C)c3C2c2ccc(Cl)cc2)cn2c(C)nnc12 (stereo not drawn) [Example 118, 6-(4-chlorophenyl)-5-(3,8-dimethyl-[1,2,4]triazolo[4,3-a]pyridin-6-yl)-1-methyl-3-(1-methylazetidin-3-yl)-5,6-dihydropyrrolo[3,4-b]pyrrol-4(1H)-one] | 21 nM | 22 nM | 32300 nM | 374 nM | 591.5 nM | 956 nM | 1810 nM | 3830 nM | >10000 nM
7 | Cc1cc(N2C(=O)c3c(C4CC4)c(C4=CCOCC4)n(C)c3C2c2ccc(Cl)cc2)cn2c(C)nnc12 (stereo not drawn) [Example 119, 6-(4-chlorophenyl)-3-cyclopropyl-2-(3,6-dihydro-2H-pyran-4-yl)-5-(3,8-dimethyl-[1,2,4]triazolo[4,3-a]pyridin-6-yl)-1-methyl-5,6-dihydropyrrolo[3,4-b]pyrrol-4(1H)-one] | < 11 nM | < 11 nM | 1700 nM | 1.24 nM | 3.76 nM | 1.57 nM | 3.665 nM | 11.7 nM | 3740 nM
